In brackets after ≈: the same amount, converted by molar mass.
Experiment: Inhibition of yeast alpha-glucosidase
Parameters: species or system Saccharomyces cerevisiae

Compound: OC[C@H]1NC[C@@H](O)[C@@H]1O
- IC50: 0.16 mg/L (≈ 1.2 µM)
